Where two headings read alike, the source gives them in different places.
Tests used:
[1] = tested on: IL-1β cytokine output from THP-1s; experiment: THP-1 AlphaLISA IL-1β cytokine assay; type: cell-based, human; conditions: read-out: IL-1β (IC50)
Experimental: Measuring Inhibitory Effects on IL-1β and IL-6 Cytokine Output from THP-1s
The cytokine inhibition profiles of compounds of formula (IW-1) were determined in a differentiated THP-1 cell assay. All assays were performed in RPMI-1640 growth medium (Gibco), supplemented with 10% fetal bovine serum (FBS; Gibco), 1% penicillin-streptomycin and 1% sodium pyruvate unless specified otherwise. The IL-1β and IL-6 cytokine inhibition assays were each run in a background of differentiated THP-1 cells as described below. All reagents described were from Sigma-Aldrich unless specified otherwise. Compounds were prepared as 10 mM DMSO stocks.
THP-1 cells were expanded as a suspension up to 80% confluence in appropriate growth medium. Cells were harvested, suspended, and treated with an appropriate concentration of phorbol 12-myristate 13-acetate (PMA) over a 72 hr period (37° C./5% CO2).
Following 72 hrs of THP-1 cell incubation, cellular medium was removed and replaced with fresh growth media containing 1% of FBS. Working concentrations of compounds were prepared separately in 10% FBS treated growth medium and pre-incubated with the cells for 30 minutes (37° C./5% CO2). Following the 30 minute compound pre-incubation, THP-1s were treated with an appropriate concentration of LPS and the THP-1s were subsequently incubated for a 24 hr period (37° C./5% CO2). An appropriate final concentration of Nigericin was then dispensed into the THP-1 plates and incubated for 1 hour (37° C./5% CO2) before THP-1 supernatants were harvested and collected in separate polypropylene 96-well holding plates.
Reagents from each of the IL-1β and IL-6 commercial kits (Perkin Elmer) were prepared and run according to the manufacturer's instructions. Subsequently, fluorescence signal detection in a microplate reader was measured (EnVision® Multilabel Reader, Perkin Elmer).
Percentage inhibition was calculated per cytokine by normalising the sample data to the high and low controls used within each plate (+/−LPS respectively). Percentage inhibition was then plotted against compound concentration and the 50% inhibitory concentration (IC50) was determined from the resultant concentration-response curve.

NRF2 = NRF2 +/-GSH activation assay (DiscoverX PathHunter NRF2 translocation kit, U2OS cells); type: cell-based; conditions: for Emax: read-out: NRF2 activation Emax; for EC50: read-out: NRF2 activation EC50
Experimental: Measuring Compound Activation Effects on the Anti-Inflammatory Transcription Factor NRF2 in DiscoverX PathHunter NRF2 Translocation Kit
Potency and efficacy of compounds of formula (IW-1) against the target of interest to activate NRF2 (nuclear factor erythroid 2-related factor 2) were determined using the PathHunter NRF2 translocation kit (DiscoverX). The NRF2 translocation assay was run using an engineered recombinant cell line, utilising enzyme fragment complementation to determine activation of the Keap1-NRF2 protein complex and subsequent translocation of NRF2 into the nucleus. Enzyme activity was quantified using a chemiluminescent substrate consumed following the formation of a functional enzyme upon PK-tagged NRF2 translocation into the nucleus.
The assay was run under either +/−GSH (glutathione) conditions to determine the attenuating activities of GSH against target compounds.
Additionally, a defined concentration of dimethyl fumarate was used as the ‘High’ control to normalise test compound activation responses to.
U2OS PathHunter eXpress cells were thawed from frozen prior to plating. Following plating, U2OS cells were incubated for 24 hrs (37° C./5% CO2) in commercial kit provided cell medium.
Following 24 hrs of U2OS incubation, cells were directly treated with an appropriate final concentration of compound, for −GSH conditions, or for +GSH conditions, an intermediate plate containing 6× working concentrations of compound stocks was prepared in a 6 mM working concentration of GSH solution (solubilised in sterile PBS). Following a 30 minute compound-GSH pre-incubation (37° C./5% CO2) for +GSH treatment, plated U2OS cells were incubated with an appropriate final concentration of compound and GSH.
Following compound (+/−GSH) treatment, the U2OS plates were incubated for a further 6 hours (37° C./5% CO2) before detection reagent from the PathHunter NRF2 commercial kit was prepared and added to test plates according to the manufacturer's instructions. Subsequently, the luminescence signal detection in a microplate reader was measured (PHERAstar®, BMG Labtech).
Percentage activation was calculated by normalising the sample data to the high and low controls used within each plate (+/−DMF). Percentage activation/response was then plotted against compound concentration and the 50% activation concentration (EC50) was determined from the plotted concentration-response curve.

[2] = Mouse pharmacokinetic study, intravenous dosing; type: in vivo; conditions: male, C57BL/6, mouse, iv, plasma, 10 mg/kg i.v., read-out: Parent compound concentration following intravenous administration
Experimental: (§1) Pharmacokinetic studies were carried out in 6-8-week-old male C57BL/6 mice having free access to food and water. Intravenous dosing was conducted at 10 mg/kg (5 mL/kg; vehicle: 10% DMSO-90% (25% HP-13-CD in water)) via tail vein injection, with sampling at 3 min, 8 min, 15 min, 30 min, 1, 2, 4, 6 and 8 hours, i.e., 9 time points in total (N=3/time point), using semi-serial bleeding for plasma. Oral compound administration, via gavage, was carried out at 100 mg/kg (10 mL/kg; vehicle: 5% DMSO-95% (0.5% HPMC+0.1% Tween 80 in water)), with sampling at 5 min, 15 min, 30 min, 1, 2, 4, 6, 8 and 24 hours, i.e., 9 time points in total (N=3/time point), using semi-serial bleeding for plasma.
(§2) For both intravenous and oral routes, the mice were restrained manually at the designated time points, with ca. 110 μL of blood being taken into K2EDTA tubes via the facial vein. Blood samples were put on ice and centrifuged to obtain plasma samples from which the concentration at each time point was measured by LC-MS/MS.

[3] = Mouse pharmacokinetic study, oral administration; type: in vivo; conditions: male, C57BL/6, mouse, plasma, po, 100 mg/kg, plasma, male C57BL/6 mice, oral gavage 100 mg/kg
Experimental: as §1, §2

[4] = Homo sapiens, THP-1, PMA-differentiated THP-1 cells, LPS 24 hr then Nigericin 1 hour
[5] = Homo sapiens, U2OS, normalised to dimethyl fumarate 'High' control, GSH condition not stated in Table 5
[6] = Homo sapiens, U2OS PathHunter cells, 6 hours, GSH condition not stated in Table 5
[7] = Homo sapiens, PMA-differentiated THP-1 cells, LPS 24 hr then Nigericin 1 hour

Q: What does the source list for `C=C(CC(=O)OCCCCCC)C(=O)OCCc1nnn[nH]1` [Example 78, 1-(2-(1H-tetrazol-5-yl)ethyl) 4-hexyl 2-methylenesuccinate]?
A: IC50 [1, 4]: 4.2 µM; Emax (NRF2; [5]): 177%; EC50 (NRF2; [6]): 17.7 µM

Q: For `C=C(CC(=O)OC1CCCCC1)C(=O)OCCc1nnn[nH]1` [Example 128, 1-(2-(1H-tetrazol-5-yl)ethyl) 4-cyclohexyl 2-methylenesuccinate], which IC50 [1, 4] is on record?
A: 32.7 µM

Q: What about the Emax (NRF2; [5]) of the same molecule?
A: 104%

Q: And the EC50 (NRF2; [6])?
A: 38 µM

Q: For `C=C(CC(=O)OC(CCCC)CCCC)C(=O)OCC(=O)O` [Example 175, 2-((2-methylene-4-(nonan-5-yloxy)-4-oxobutanoyl)oxy)acetic acid], which concentration at 0.05 h ([2]; time 0.05 h) is on record?
A: 27500 ng/mL

Q: What about the concentration at 0.133 h ([2]; time 0.133 h) of the same molecule?
A: 11700 ng/mL

Q: What about the concentration at 0.25 h ([2]; time 0.25 h) of the same molecule?
A: 6110 ng/mL

Q: And the concentration at 0.5 h ([2]; time 0.5 h)?
A: 1190 ng/mL

Q: And the concentration at 1 h ([2]; time 1 h)?
A: 181 ng/mL

Q: What about the concentration at 2 h ([2]; time 2 h) of the same molecule?
A: 32 ng/mL

Q: And the concentration at 4 h ([2]; time 4 h)?
A: < 4 ng/mL

Q: And the concentration at 6 h ([2]; time 6 h)?
A: < 4 ng/mL

Q: And the concentration at 8 h ([2]; time 8 h)?
A: < 4 ng/mL

Q: And the IC50 [1, 4]?
A: 7.6 µM

Q: And the concentration at 0.083 h ([3]; 0.083 h, read-out: Parent compound concentrations following oral administration, Time 0.083 h)?
A: 39100 ng/mL

Q: And the concentration at 0.25 h ([3]; 0.25 h, read-out: Parent compound concentrations following oral administration, Time 0.25 h)?
A: 19500 ng/mL

Q: And the concentration at 0.5 h ([3]; 0.5 h, read-out: Parent compound concentrations following oral administration, Time 0.5 h)?
A: 18200 ng/mL

Q: What about the concentration at 1 h ([3]; 1 h, read-out: Parent compound concentrations following oral administration, Time 1 h) of the same molecule?
A: 5520 ng/mL

Q: What about the concentration at 2 h ([3]; 2 h, read-out: Parent compound concentrations following oral administration, Time 2 h) of the same molecule?
A: 1410 ng/mL

Q: What about the concentration at 4 h ([3]; 4 h, read-out: Parent compound concentrations following oral administration, Time 4 h) of the same molecule?
A: 2000 ng/mL

Q: What about the concentration at 6 h ([3]; 6 h, read-out: Parent compound concentrations following oral administration, Time 6 h) of the same molecule?
A: 784 ng/mL

Q: What about the concentration at 8 h ([3]; 8 h, read-out: Parent compound concentrations following oral administration, Time 8 h) of the same molecule?
A: 231 ng/mL

Q: What about the concentration at 24 h ([3]; 24 h, read-out: Parent compound concentrations following oral administration, Time 24 h) of the same molecule?
A: < 4 ng/mL

Q: With `C=C(CC(=O)OC1CCCCCC1)C(=O)OCC(=O)O` [Example 145, 2-(4-(cycloheptyloxy)-2-methylene-4-oxobutanoyloxy)acetic acid] as the molecule, how does the IC50 [1, 7] read?
A: 19.3 µM

Q: What about the EC50 (NRF2; Homo sapiens, U2OS, 6 h) of the same molecule?
A: > 100 µM

Q: And the Emax (NRF2; Homo sapiens, U2OS)?
A: 7%

Q: Which IC50 [1, 4] does the source give for `C=C(CC(=O)OCCCOc1ccccc1)C(=O)OCC(=O)O` [Example 95, 2-((2-methylene-4-oxo-4-(3-phenoxypropoxy)butanoyl)oxy)acetic acid] here?
A: 80.6 µM

Q: And the Emax (NRF2; [5])?
A: 122%

Q: And the EC50 (NRF2; [6])?
A: 36.5 µM

Q: With `C=C(CC(=O)OC1CC2(COC2)C1)C(=O)O[C@H]1[C@@H]2CC[C@H]1CN(S(C)(=O)=O)C2` [Example 157, 1-((endo)-3-(methylsulfonyl)-3-azabicyclo[3.2.1]octan-8-yl) 4-(2-oxaspiro[3.3]heptan-6-yl) 2-methylenesuccinate] as the molecule, how does the IC50 [1, 4] read?
A: 41.6 µM

Q: What about the Emax (NRF2; [5]) of the same molecule?
A: 29%

Q: And the EC50 (NRF2; [6])?
A: > 100 µM

Q: For `C=C(CC(=O)O[C@H]1[C@@H]2CC[C@H]1CN(S(C)(=O)=O)C2)C(=O)O[C@H]1[C@@H]2CC[C@H]1CN(S(C)(=O)=O)C2` [Example 156, bis((endo)-3-(methylsulfonyl)-3-azabicyclo[3.2.1]octan-8-yl) 2-methylenesuccinate], which IC50 [1] is on record?
A: 27.9 µM

Q: What about the EC50 (NRF2; U2OS PathHunter cells, 6 hours, GSH condition not stated in Table 5) of the same molecule?
A: 47.9 µM

Q: And the “NRF2 activation Emax” value (NRF2; normalised to dimethyl fumarate 'High' control, GSH condition not stated in Table 5)?
A: 63%

Q: What does the source list for `C=C(CC(=O)OC1CCCCC1)C(=O)OC1CCN(S(C)(=O)=O)CC1` [Example 75, 4-cyclohexyl 1-(1-(methylsulfonyl)piperidin-4-yl) 2-methylenesuccinate]?
A: IC50 [1, 4]: 11.2 µM; Emax (NRF2; [5]): 143%; EC50 (NRF2; [6]): 17.5 µM

Q: For `C=C(CC(=O)OC1CCCCCCC1)C(=O)OCCc1nnn[nH]1` [Example 130, 1-(2-(1H-tetrazol-5-yl)ethyl) 4-cyclooctyl 2-methylenesuccinate], which IC50 [1, 4] is on record?
A: 16 µM

Q: What about the Emax (NRF2; [5]) of the same molecule?
A: 164%

Q: What about the EC50 (NRF2; [6]) of the same molecule?
A: 29.1 µM

Q: With `C=C(CC(=O)OC1CCCCCC1)C(=O)OCc1nn[nH]n1` [Example 162, 1-(2H-tetrazol-5-yl)methyl 4-cycloheptyl 2-methylenesuccinate] as the molecule, how does the IC50 [1, 4] read?
A: 14.7 µM

Q: What about the Emax (NRF2; [5]) of the same molecule?
A: 164%

Q: And the EC50 (NRF2; [6])?
A: 31.3 µM

Q: For `C=C(CC(=O)O[C@H](C)CCCCCC)C(=O)OCCc1nnn[nH]1` [Example 135, (R)-1-(2-(1H-tetrazol-5-yl)ethyl) 4-octan-2-yl 2-methylenesuccinate], which IC50 [1, 4] is on record?
A: 4.2 µM

Q: And the Emax (NRF2; [5])?
A: 157%

Q: And the EC50 (NRF2; [6])?
A: 11.1 µM

Q: Which IC50 [1, 7] does the source give for `C=C(CC(=O)OC1CC2(CCC2)C1)C(=O)OCC(O)(O)C(F)(F)F` [Example 160, 4-spiro[3.3]heptan-2-yl 1-(3,3,3-trifluoro-2,2-dihydroxypropyl) 2-methylenesuccinate Hydrate] here?
A: 8.1 µM

Q: What about the EC50 (NRF2; Homo sapiens, U2OS, 6 h) of the same molecule?
A: 72.6 µM

Q: And the Emax (NRF2; Homo sapiens, U2OS)?
A: 7%
